Data published in article PMC12858582, “A coral-derived neuropeptide suppresses pentylenetetrazol (PTZ)-induced epileptic seizures and improves recognition memory deficits by modulating NPY-Y1R” (Archives of Toxicology, 2025).
One block for each molecule: values may come before it. Where no end group is shown, it is not given here.

Legend:
C57BL/6 J mice [1] = test: PTZ-kindling-induced epileptic mice model; assay type: in vivo
Protocol: The PTZ-kindling-induced epileptic mice model was monitored as previously described (Singh et al. [2021]). PTZ (30 mg/kg, subconvulsive dose) was dissolved in saline and administered via intraperitoneal injection. TpNPY was dissolved in saline and delivered through daily intravenous injection of increasing concentrations (0.25 mg/kg, 0.5 mg/kg and 1 mg/kg) 30 min before PTZ injections for 14 consecutive days. Randomized grouping was used to divide C57BL/6 mice into 7 groups with 10 mice in each group. Then, behavioral observation was carried out at the same time, until the seizure of mice was kindled. The PTZ-only group was not exposed to TpNPY, and the control group was only given saline.

HT22 cells = test: HT22 cell viability (MTT assay); assay type: cell-based, mouse; settings: for cell viability: 24 h
Protocol: The HT22 cell line was obtained from the ATCC (Manassas, VA, USA) and cultured in DMEM medium with an additional 10% fetal bovine serum (Gibco, US origin), 1% penicillin (100 U/mL) and streptomycin 100 (µg/mL) in a humidified 5% CO2 atmosphere at 37 °C. Cell viability was evaluated by measuring the activity of mitochondrial dehydrogenases with 3-(4,5-dimethyl-2-thiazolyl) 2,5 diphenyl-2H-tetrazolium bromide (MTT) assay (Sigma-Aldrich, USA). Briefly, HT22 cells were seeded in 96-well plates at a density of 8 × 10^3 cells per well. After various drug incubation, cells were incubated in 0.5 mg/mL MTT solution for 4 h at 37 °C. The supernatant medium was then discarded, and 100 µL of DMSO per well was added to dissolve the violet-formazan crystals. The absorbance at 570 nm wavelength was then tested by SpectraMax M5 (Wallac, The Netherlands). Under the same cell culture conditions as the cell viability assay, cytotoxicity was also evaluated via LDH release using an LDH assay kit (Beyotime, China). After different treatments, the supernatant of the cell culture medium was collected and tested according to the manufacturer’s protocol. The absorbance at 490 nm wavelength of supernatant was recorded by SpectraMax M5 (Wallac, The Netherlands).

C57BL/6 J mice [2] = test: Morris water maze (MWM) test; assay type: in vivo; settings: MWM test stage, n = 6
Protocol: The Morris Water Maze (MWM) test assessed spatial learning and memory in mice (Bromley-Brits et al. [2011]). A circular pool (opaque with milk powder) was divided into four quadrants, with a hidden platform submerged in the third quadrant. Eight-week-old male C57BL/6 J mice were trained over five days (4 trials/day) to locate the platform, guided by visual cues. Escape latency (max 60 s) and platform stay time (30 s) were recorded. A probe trial (platform removed) was conducted 24 h post-training, recording time to the platform site, crossings, speed, and distance via a video camera connected to the ANY-maze Video Tracking System.

zebrafish larvae = test: Zebrafish larvae survival/mortality; assay type: in vivo; settings: 24 h exposure, 6-dpf AB wild-type larvae
Protocol: The 6-day post-fertilization (6-dpf) AB wild-type zebrafish were treated with various concentrations of TpNPY for 24 h in zebrafish-specific E3 culture medium. The mortality of zebrafish was calculated based on the observation of their heartbeat. To trigger seizures, zebrafish larvae were subjected to zebrafish culture medium containing 10 mM PTZ (Sigma-Aldrich, purity ≥ 99%) in 96-well plates. Their locomotor behaviors were recorded using a digital video tracking system (ViewPoint Behavior Technology, France).

[3] = target: T1, NPY-Y1 receptor (NPY-Y1R) (Homo sapiens, UniProt P25929); test: SPR
T1 chain: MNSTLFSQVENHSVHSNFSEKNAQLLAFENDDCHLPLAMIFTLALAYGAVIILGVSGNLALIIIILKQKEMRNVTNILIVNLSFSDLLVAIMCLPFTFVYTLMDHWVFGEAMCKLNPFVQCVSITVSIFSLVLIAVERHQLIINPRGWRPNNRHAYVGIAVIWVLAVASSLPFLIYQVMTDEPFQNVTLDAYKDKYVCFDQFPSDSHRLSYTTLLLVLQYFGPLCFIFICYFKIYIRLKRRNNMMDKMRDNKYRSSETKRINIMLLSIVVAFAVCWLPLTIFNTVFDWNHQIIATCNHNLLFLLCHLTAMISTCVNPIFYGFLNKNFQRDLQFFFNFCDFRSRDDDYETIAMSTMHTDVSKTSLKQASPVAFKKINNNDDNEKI

Molecule: C1CCc2nnnn2CC1 [PTZ, Pentylenetetrazole, reference compound]
- seizure score (C57BL/6 J mice [1]; PTZ-treated group, PTZ 30 mg/kg i.p., no TpNPY, after 15 injections, mean ± SEM, SEM): 4.91 ± 0.41

Molecule: N[C@@H](CCC(=O)O)C(=O)O [glutamate]
- cell viability (HT22 cells; 10 mM glutamate): 78.22%
- cell viability (HT22 cells; 15 mM glutamate): 64.78%
- cell viability (HT22 cells; 20 mM glutamate): 40.82%

Molecule: VGGPPKRPESFKSMAELNAYLSDLAGYYTVIGRPRF-NH2 [TpNPY]
- swimming speed (C57BL/6 J mice [2]): without affecting swimming speed
- mortality rate of zebrafish larvae (zebrafish larvae; 40 μM): approximately 50%
- survival rate of zebrafish larvae (zebrafish larvae; 6-25 μM): did not lead to any substantial changes in the survival rate
- cell viability (cytotoxicity of TpNPY) (HT22 cells; 1.56 to 50 μM, 24 h incubation): did not elicit any significant changes in cell viability
- behavior of mice, TpNPY alone (C57BL/6 J mice [1]; TpNPY without PTZ): no obvious influence on the behavior of mice

- Kd [3]: 1.98 µM
B1: TpNPY (peptide)
chain: VGGPPKRPESFKSMAELNAYLSDLAGYYTVIGRPRF-NH2
